Fold change (FC) data for 3 compounds are collected here from ChEMBL document CHEMBL5653631, “A Potent and Selective ULK1 Inhibitor Suppresses Autophagy and Sensitizes Cancer Cells to Nutrient Stress” (iScience, 2018).

Experiment [1] concerns the target T1, Calcium/calmodulin-dependent protein kinase type IV (Homo sapiens) (UniProt Q16566).
T1 sequence (whole entry): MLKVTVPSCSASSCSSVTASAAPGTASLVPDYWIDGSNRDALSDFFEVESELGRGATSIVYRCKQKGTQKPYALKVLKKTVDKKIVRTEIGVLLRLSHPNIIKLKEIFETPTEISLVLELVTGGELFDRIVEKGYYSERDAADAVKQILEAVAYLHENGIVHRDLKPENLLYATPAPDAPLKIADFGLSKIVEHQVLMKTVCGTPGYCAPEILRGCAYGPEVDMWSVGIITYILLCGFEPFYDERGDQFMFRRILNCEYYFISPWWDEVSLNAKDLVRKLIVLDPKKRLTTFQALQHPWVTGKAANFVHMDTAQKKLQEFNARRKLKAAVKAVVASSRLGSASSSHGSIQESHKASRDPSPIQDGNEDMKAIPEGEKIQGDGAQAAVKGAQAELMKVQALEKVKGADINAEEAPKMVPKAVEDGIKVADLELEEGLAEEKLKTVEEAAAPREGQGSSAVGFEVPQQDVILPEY
The experiment in a line: Inhibition of human recombinant CaMK4 at 40 nM related to control ULK1.

Experiment [2] concerns the target Dual specificity protein kinase CLK1 (Homo sapiens) (UniProt P49759). The experiment in a line: Inhibition of human recombinant CLK1 at 40 nM related to control ULK1.
In experiment [3] the target is eIF-2-alpha kinase GCN2 (Homo sapiens) (UniProt Q9P2K8). The experiment in a line: Inhibition of human recombinant GCN2 at 40 nM related to control ULK1.
Experiment [4] deals with T2, NUAK family SNF1-like kinase 2 (Homo sapiens) (UniProt Q9H093).
T2 sequence (whole entry): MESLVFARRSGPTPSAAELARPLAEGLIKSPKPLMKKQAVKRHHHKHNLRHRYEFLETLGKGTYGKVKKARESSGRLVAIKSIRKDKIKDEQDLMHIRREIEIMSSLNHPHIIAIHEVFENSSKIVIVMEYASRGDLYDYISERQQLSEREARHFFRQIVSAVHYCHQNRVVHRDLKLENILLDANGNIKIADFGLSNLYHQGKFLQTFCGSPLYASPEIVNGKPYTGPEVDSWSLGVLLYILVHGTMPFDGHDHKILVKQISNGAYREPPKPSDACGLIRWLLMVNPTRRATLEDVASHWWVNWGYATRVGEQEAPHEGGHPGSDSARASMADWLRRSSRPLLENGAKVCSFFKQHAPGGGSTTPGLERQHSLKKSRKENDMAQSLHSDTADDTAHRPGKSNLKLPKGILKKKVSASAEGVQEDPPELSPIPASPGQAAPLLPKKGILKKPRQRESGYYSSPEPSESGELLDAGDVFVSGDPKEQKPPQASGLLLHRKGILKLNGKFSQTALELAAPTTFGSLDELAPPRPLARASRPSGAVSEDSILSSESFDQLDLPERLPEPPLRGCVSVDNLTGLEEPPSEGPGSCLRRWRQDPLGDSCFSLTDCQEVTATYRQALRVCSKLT
The experiment in a line: Inhibition of human recombinant NuaK2 at 40 nM related to control ULK1.

Experiment [5] addresses Tyrosine-protein kinase Fes/Fps (Homo sapiens) (UniProt P07332). The experiment in a line: Inhibition of human recombinant FES at 500 nM related to control ULK1.
The target of experiment [6] is T3, Serine/threonine-protein kinase ULK2 (Homo sapiens) (UniProt Q8IYT8).
T3 sequence (whole entry): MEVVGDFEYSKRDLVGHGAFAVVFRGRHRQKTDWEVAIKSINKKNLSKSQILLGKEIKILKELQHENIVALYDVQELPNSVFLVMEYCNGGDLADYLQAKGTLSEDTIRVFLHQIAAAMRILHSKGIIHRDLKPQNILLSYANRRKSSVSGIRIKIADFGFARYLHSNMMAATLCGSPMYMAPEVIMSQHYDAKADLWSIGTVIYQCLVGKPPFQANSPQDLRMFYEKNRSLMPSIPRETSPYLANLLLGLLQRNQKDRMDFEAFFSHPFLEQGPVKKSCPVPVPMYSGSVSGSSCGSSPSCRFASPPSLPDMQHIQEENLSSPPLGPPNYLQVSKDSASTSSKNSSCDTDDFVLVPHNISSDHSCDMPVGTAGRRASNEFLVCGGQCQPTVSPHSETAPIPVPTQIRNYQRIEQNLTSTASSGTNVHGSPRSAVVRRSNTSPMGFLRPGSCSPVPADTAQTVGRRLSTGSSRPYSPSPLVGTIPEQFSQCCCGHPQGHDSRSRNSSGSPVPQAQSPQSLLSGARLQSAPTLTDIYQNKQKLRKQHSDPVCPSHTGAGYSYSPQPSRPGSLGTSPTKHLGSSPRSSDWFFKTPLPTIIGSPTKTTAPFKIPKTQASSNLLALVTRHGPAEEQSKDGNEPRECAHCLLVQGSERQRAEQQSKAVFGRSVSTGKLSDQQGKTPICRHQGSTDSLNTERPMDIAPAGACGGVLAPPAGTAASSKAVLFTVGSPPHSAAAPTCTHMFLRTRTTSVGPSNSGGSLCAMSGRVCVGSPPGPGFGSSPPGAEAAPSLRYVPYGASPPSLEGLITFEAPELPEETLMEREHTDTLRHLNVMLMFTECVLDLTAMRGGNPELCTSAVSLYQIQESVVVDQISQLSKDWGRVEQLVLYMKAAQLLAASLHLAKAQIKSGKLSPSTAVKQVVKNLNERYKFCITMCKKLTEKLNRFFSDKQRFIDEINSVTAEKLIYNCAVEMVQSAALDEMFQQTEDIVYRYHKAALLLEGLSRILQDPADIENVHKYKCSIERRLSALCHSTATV
Nature of the experiment: Inhibition of human recombinant ULK2 at 500 nM related to control ULK1.

Experiment [7] deals with T1, Calcium/calmodulin-dependent protein kinase type IV (Homo sapiens). The experiment in a line: Inhibition of human recombinant CaMK4 at 15 nM related to control ULK1.
The target in experiment [8] is Epidermal growth factor receptor (Homo sapiens) (UniProt P00533). The experiment in a line: Inhibition of human recombinant EGFR at 15 nM related to control ULK1.
Experiment [9] concerns the target Serine/threonine-protein kinase PLK1 (Homo sapiens) (UniProt P53350). Nature of the experiment: Inhibition of human recombinant PLK1 at 15 nM related to control ULK1.

Chain of Serine/threonine-protein kinase PLK1 (Homo sapiens) (P53350 whole entry): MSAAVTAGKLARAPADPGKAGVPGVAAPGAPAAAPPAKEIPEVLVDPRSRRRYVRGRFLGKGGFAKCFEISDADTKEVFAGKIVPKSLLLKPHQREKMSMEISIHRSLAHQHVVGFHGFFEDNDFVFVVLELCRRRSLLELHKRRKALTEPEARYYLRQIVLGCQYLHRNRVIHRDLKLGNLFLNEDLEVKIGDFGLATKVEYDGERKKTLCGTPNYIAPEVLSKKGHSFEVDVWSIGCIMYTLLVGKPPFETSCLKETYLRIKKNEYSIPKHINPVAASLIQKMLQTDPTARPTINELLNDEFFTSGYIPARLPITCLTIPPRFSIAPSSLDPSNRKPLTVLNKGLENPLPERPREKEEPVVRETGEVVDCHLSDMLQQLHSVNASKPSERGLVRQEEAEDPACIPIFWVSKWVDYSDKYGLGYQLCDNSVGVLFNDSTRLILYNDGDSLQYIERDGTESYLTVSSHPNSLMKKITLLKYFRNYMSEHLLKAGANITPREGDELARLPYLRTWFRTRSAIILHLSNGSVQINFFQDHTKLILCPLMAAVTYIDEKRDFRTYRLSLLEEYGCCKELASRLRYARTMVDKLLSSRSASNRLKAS
Chain of Dual specificity protein kinase CLK1 (Homo sapiens) (P49759 whole entry, looked up): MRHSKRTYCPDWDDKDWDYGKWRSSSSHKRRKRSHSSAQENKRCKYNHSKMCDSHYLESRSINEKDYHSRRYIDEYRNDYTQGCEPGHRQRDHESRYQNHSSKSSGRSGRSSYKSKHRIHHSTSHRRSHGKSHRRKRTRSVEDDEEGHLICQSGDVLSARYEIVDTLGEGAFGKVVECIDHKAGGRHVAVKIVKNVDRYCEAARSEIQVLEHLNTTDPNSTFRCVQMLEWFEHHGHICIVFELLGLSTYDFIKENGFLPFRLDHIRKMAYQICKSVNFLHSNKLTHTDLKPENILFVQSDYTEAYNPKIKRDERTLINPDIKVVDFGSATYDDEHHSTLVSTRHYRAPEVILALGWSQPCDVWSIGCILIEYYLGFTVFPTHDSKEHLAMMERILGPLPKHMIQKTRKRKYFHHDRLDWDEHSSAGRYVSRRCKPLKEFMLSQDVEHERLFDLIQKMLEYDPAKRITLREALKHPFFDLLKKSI
Chain of eIF-2-alpha kinase GCN2 (Homo sapiens) (Q9P2K8 whole entry): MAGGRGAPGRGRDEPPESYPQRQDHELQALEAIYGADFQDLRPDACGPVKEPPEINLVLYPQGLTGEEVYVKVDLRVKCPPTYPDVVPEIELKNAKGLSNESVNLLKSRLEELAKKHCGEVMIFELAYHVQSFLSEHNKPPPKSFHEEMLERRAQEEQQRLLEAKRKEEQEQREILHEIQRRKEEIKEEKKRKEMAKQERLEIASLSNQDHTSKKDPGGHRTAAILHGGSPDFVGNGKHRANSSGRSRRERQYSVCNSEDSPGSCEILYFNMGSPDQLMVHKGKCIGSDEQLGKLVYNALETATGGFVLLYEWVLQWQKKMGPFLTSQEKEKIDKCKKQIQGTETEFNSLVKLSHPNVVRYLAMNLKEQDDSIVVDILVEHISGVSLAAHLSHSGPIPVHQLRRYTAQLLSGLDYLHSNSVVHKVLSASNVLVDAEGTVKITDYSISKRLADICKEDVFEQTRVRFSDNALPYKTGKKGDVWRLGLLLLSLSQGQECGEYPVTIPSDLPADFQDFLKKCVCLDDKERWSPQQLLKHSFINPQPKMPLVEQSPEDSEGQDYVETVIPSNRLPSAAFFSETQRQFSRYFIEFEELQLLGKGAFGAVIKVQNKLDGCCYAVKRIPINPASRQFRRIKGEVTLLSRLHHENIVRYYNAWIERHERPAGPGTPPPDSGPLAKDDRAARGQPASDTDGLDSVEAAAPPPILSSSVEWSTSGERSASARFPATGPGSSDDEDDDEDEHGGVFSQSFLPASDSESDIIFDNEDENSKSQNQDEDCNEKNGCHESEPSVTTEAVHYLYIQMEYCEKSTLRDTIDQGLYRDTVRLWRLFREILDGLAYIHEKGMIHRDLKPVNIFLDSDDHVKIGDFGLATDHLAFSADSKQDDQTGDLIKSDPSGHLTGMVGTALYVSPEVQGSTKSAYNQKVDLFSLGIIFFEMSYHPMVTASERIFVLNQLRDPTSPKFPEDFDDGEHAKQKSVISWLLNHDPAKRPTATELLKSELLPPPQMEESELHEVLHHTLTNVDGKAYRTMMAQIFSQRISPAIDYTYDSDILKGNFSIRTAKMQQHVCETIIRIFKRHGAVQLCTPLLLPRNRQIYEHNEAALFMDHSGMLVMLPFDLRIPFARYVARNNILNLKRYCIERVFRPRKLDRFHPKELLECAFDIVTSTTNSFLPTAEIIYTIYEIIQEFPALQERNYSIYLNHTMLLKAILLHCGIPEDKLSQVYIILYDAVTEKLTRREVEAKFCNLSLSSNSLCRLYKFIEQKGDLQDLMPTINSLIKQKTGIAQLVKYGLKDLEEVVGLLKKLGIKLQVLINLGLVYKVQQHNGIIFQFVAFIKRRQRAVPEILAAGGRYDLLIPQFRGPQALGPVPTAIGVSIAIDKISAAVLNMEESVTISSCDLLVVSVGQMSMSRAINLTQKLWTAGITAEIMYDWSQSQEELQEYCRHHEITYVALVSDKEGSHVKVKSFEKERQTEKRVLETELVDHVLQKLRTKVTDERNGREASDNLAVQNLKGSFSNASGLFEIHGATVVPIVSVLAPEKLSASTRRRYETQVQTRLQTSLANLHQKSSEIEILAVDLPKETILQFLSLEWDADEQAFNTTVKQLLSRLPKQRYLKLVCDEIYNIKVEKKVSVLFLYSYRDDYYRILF
Chain of Epidermal growth factor receptor (Homo sapiens) (P00533 whole entry): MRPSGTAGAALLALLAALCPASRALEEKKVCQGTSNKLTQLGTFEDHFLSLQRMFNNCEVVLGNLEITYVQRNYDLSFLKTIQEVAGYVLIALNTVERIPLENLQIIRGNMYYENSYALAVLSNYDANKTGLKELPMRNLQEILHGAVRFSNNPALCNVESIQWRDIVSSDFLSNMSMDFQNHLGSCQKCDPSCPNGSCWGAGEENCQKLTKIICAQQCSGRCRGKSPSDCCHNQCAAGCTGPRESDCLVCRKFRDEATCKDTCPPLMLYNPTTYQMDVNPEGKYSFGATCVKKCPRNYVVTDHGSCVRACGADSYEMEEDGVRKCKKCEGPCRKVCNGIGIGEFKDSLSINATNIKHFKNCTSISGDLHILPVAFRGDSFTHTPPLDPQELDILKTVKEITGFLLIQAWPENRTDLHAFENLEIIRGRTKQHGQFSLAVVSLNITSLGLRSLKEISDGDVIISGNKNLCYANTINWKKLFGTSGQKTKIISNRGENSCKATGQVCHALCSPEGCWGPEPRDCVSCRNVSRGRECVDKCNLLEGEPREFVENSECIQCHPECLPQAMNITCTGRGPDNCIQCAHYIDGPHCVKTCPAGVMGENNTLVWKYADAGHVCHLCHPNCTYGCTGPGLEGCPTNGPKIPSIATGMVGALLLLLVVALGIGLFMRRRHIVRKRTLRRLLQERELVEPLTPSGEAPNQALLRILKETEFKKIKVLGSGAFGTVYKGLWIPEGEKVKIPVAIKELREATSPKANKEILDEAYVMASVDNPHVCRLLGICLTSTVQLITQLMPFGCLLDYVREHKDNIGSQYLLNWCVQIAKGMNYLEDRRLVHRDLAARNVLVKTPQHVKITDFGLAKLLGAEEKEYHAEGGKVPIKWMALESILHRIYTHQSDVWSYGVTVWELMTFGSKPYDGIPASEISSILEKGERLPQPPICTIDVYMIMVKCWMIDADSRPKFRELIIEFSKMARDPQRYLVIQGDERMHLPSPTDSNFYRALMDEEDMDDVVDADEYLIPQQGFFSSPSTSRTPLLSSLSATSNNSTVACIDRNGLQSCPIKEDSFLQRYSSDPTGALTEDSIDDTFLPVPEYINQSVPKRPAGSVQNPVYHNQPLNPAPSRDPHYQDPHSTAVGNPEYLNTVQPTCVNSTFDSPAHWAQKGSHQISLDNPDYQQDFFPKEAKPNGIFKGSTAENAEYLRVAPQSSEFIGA
Chain of Tyrosine-protein kinase Fes/Fps (Homo sapiens) (P07332 whole entry): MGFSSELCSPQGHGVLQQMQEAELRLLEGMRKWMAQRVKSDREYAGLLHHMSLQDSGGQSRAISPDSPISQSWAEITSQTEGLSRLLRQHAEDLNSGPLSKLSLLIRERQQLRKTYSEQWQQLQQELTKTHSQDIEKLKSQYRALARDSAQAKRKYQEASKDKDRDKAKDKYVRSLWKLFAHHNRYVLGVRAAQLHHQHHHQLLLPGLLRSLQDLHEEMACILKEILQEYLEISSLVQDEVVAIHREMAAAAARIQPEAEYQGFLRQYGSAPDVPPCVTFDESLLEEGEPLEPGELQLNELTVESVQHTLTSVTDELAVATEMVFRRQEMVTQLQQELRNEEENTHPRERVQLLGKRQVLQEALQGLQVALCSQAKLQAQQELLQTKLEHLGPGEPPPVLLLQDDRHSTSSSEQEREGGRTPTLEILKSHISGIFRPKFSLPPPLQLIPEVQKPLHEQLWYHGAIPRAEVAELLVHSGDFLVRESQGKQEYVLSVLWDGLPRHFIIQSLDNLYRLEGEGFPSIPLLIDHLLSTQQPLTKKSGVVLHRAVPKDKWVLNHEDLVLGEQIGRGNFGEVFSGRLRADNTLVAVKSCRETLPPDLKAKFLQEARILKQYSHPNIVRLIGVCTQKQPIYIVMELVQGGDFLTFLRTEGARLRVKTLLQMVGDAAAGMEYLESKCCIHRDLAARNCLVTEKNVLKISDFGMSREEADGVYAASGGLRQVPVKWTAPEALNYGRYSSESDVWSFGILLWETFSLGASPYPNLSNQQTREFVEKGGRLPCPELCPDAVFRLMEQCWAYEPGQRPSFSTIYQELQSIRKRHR

As for `O=C(N[C@@H](C1CC1)C(F)(F)F)c1cc(-c2cnn3cc(-c4ccc(F)cc4)cnc23)cs1`, the fold change (FC) came out at 0 in [1], 0.47 in experiment [2], 0.05 in [3] and 0.04 in [4].

On to `CNC(=O)c1ccccc1Oc1nc(Nc2cc(OC)c(OC)c(OC)c2)ncc1Br`, for which the fold change (FC) came to 0.38 in experiment [5] and 0.65 in [6].

`CC(C)[C@H](NC(=O)c1cc(-c2cnn3cc(-c4ccc(OCCN5CCCCC5)cc4)cnc23)cs1)C(F)(F)F`: the fold change (FC) worked out at 0 in experiment [7], 0.03 in [8] and 0.01 in experiment [9].
